Key:
heteromeric TRPC4:TRPC1 = target: T1, heteromeric TRPC4:TRPC1 (Homo sapiens, UniProt Q9UBN4); assay: Whole-cell recordings, HEK293 co-expressing TRPC4 and TRPC1; type: cell-based; settings: 30 nM
T1 construct: expressed in transfected cells; host or cells: HEK293, transiently transfected
From the text: Müller, Niemeyer, et al., Schaefer & Thorn-Seshold 2025: Ideal Efficacy Photoswitching of TRPC4/5 in Tissue 3.3 Activation of heteromeric TRPC4:TRPC1 and TRPC5:TRPC1
Supplementary Figure 15: Photoswitching of ionic currents through heteromeric TRPC4:TRPC1 and TRPC5:TRPC1 channel complexes. Whole cell recordings from HEK293 cells that were transiently transfected to express the indicated TRPC isoforms were obtained in the whole cell mode with a voltage and photoswitching paradigm as illustrated in (A). (B-D) Superimposed recordings of 20 consecutive sweeps are shown for cells that ony express TRPC4 or TRPC5 (left), and for cells that co-express the respective TRPC channel along with TRPC1 (right). Note the characteristic change of the current-voltage relationship with smaller inward currents and stronger outward rectification in cells that co-express TRPC1. […]
or 10 nM (all other panels). The data shown are representative for 4-12 patched cells, each.
Currents through heteromeric complexes that are composed of TRPC4:TRPC1 or TRPC5:TRPC1 subunits can be unequivocally recognized on the basis of their unique biophysical properties with smaller unitary and global inward current amplitudes and a marked outward rectification.44 We show […]
also the heteromeric complexes TRPC5:TRPC1 and TRPC4:TRPC1 that are formed upon co-expression with TRPC1 (Supplementary Fig. 15). […]

PSS E/Z ratios by HPLC = type: physicochemical; settings: for PSS % E at 330 nm / PSS % E at 340 nm / PSS % E at 350 nm / PSS % E at 360 nm / PSS % E at 370 nm / PSS % E at 380 nm / PSS % E at 390 nm / PSS % E at 400 nm / PSS % E at 410 nm / PSS % E at 420 nm / PSS % E at 430 nm / PSS % E at 440 nm / PSS % E at 450 nm / PSS % E at 460 nm / PSS % E at 470 nm / PSS % E at 480 nm / PSS % E at 490 nm / PSS % E at 500 nm / PSS % Z at 330 nm / PSS % Z at 340 nm / PSS % Z at 350 nm / PSS % Z at 360 nm / PSS % Z at 370 nm / PSS % Z at 380 nm / PSS % Z at 390 nm / PSS % Z at 400 nm / PSS % Z at 410 nm / PSS % Z at 420 nm / PSS % Z at 430 nm / PSS % Z at 440 nm / PSS % Z at 450 nm / PSS % Z at 460 nm / PSS % Z at 470 nm / PSS % Z at 480 nm / PSS % Z at 490 nm / PSS % Z at 500 nm: monochromator, HPLC integration (296 nm)
Experimental: UV-VIS. UV-Vis spectra were recorded on an Agilent Cary 60 UV-Vis spectrophotometer using 1 cm quartz or PMMA cuvettes. All photoisomerisations were performed at room temperature in non-degassed solvents unless stated differently. Samples were irradiated with either a CoolLED pE-4000 or Polycon V monochromator (TILL Photonics, Gräfelfing, Germany) by shining from the […]
differently, all measurements were performed at a default concentration of 20 μM. Dark state refers […]
methods followed standard practices39–41. All-E and PSS spectra are shown in Supplementary […]
HPLC for PSS E/Z ratios. Analytical HPLC was performed on an Agilent 1200 SL with (a) a binary pump able to deliver H2O:MeCN eluent mixtures containing 0.1% formic acid at a 1 mL/min flow rate [for PSS measurements of final compounds, only MeCN was used], (b) YMC Carotenoid 5 µm, […]
(100 µM, MeCN) in HPLC vials were irradiated for at least 6 min from top with the monochromator […]
separate well); PSS ratio was then determined by integrating the signal at an isosbestic region

T1 sequence (Q9UBN4 whole entry): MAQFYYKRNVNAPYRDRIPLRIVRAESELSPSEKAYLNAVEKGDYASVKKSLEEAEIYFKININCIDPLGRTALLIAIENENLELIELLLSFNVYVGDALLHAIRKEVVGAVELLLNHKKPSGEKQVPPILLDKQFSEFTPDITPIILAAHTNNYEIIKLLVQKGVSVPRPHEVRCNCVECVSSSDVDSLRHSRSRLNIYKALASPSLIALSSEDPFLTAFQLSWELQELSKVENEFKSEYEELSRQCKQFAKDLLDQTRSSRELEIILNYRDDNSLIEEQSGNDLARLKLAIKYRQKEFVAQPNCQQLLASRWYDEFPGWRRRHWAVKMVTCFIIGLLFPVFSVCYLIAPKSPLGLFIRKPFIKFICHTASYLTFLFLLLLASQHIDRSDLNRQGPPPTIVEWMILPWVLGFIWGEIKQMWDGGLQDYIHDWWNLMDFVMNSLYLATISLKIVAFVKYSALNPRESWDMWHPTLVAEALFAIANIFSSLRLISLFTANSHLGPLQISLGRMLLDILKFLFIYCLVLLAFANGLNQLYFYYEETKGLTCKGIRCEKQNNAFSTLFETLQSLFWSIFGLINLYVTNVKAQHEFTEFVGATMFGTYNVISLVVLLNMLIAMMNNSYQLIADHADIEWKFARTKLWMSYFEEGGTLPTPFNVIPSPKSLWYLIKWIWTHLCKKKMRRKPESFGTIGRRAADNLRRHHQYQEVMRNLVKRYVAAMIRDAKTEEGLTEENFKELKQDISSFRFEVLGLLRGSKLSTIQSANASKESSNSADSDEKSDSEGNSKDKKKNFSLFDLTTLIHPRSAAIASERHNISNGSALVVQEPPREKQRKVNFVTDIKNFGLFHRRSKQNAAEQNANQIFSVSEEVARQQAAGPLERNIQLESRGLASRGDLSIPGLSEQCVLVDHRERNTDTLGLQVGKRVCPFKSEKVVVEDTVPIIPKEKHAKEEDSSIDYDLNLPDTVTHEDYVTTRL
T1 sequence (P48995 whole entry partner): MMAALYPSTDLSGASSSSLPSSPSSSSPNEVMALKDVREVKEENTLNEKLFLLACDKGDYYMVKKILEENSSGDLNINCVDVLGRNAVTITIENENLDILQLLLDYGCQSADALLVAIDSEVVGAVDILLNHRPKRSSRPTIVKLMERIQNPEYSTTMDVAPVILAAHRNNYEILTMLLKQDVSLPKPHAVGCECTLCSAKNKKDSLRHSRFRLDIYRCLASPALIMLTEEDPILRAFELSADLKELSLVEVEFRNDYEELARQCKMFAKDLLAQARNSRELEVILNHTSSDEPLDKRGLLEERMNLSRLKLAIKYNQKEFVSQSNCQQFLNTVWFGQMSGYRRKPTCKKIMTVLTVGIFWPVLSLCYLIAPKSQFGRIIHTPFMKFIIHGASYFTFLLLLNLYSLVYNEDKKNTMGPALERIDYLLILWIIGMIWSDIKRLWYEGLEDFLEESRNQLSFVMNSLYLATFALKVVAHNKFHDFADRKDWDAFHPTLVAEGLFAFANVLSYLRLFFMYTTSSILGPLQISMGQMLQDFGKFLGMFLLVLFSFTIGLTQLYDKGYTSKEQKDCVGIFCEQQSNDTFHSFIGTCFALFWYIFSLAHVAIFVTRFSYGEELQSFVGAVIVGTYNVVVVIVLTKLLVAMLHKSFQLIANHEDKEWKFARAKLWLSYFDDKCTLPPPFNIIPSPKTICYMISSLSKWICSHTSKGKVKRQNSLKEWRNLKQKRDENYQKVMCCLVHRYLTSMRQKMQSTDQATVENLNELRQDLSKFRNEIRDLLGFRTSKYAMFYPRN

Row | Structure (SMILES) | Chromocontrol over heteromeric TRPC4:TRPC1 currents versus homomeric channels (heteromeric TRPC4:TRPC1) | PSS %E around 410 nm (PSS E/Z ratios by HPLC) | PSS %Z around 360 nm (PSS E/Z ratios by HPLC) [%] | PSS % E at 330 nm (PSS E/Z ratios by HPLC) [%] | PSS % E at 340 nm (PSS E/Z ratios by HPLC) [%] | PSS % E at 350 nm (PSS E/Z ratios by HPLC) [%] | PSS % E at 360 nm (PSS E/Z ratios by HPLC) [%] | PSS % E at 370 nm (PSS E/Z ratios by HPLC) [%] | PSS % E at 380 nm (PSS E/Z ratios by HPLC) [%] | PSS % E at 390 nm (PSS E/Z ratios by HPLC) [%] | PSS % E at 400 nm (PSS E/Z ratios by HPLC) [%] | PSS % E at 410 nm (PSS E/Z ratios by HPLC) [%] | PSS % E at 420 nm (PSS E/Z ratios by HPLC) [%] | PSS % E at 430 nm (PSS E/Z ratios by HPLC) [%] | PSS % E at 440 nm (PSS E/Z ratios by HPLC) [%] | PSS % E at 450 nm (PSS E/Z ratios by HPLC) [%] | PSS % E at 460 nm (PSS E/Z ratios by HPLC) [%] | PSS % E at 470 nm (PSS E/Z ratios by HPLC) [%] | PSS % E at 480 nm (PSS E/Z ratios by HPLC) [%] | PSS % E at 490 nm (PSS E/Z ratios by HPLC) [%] | other results
1 | Cn1c(=O)n(CCCO)c(=O)c2c1nc(Oc1ccc(N=Nc3ccccc3)c(OC(F)(F)F)c1)n2Cc1ccc(Cl)cc1 [AzPico] | comparable chromocontrol | ~ 82% | 95 | 16 | 8 | 5 | 5 | 11 | 23 | 38 | 79 | 84 | 84 | 82 | 80 | 77 | 74 | 70 | 67 | 64 | PSS % E at 500 nm (PSS E/Z ratios by HPLC): 61%; PSS % Z at 330 nm (PSS E/Z ratios by HPLC): 84%; PSS % Z at 340 nm (PSS E/Z ratios by HPLC): 92%; PSS % Z at 350 nm (PSS E/Z ratios by HPLC): 95%; PSS % Z at 360 nm (PSS E/Z ratios by HPLC): 95%; PSS % Z at 370 nm (PSS E/Z ratios by HPLC): 89%; PSS % Z at 380 nm (PSS E/Z ratios by HPLC): 77%; PSS % Z at 390 nm (PSS E/Z ratios by HPLC): 62%; PSS % Z at 400 nm (PSS E/Z ratios by HPLC): 21%; PSS % Z at 410 nm (PSS E/Z ratios by HPLC): 16%; PSS % Z at 420 nm (PSS E/Z ratios by HPLC): 16%; PSS % Z at 430 nm (PSS E/Z ratios by HPLC): 18%; PSS % Z at 440 nm (PSS E/Z ratios by HPLC): 20%; PSS % Z at 450 nm (PSS E/Z ratios by HPLC): 23%; PSS % Z at 460 nm (PSS E/Z ratios by HPLC): 27%; PSS % Z at 470 nm (PSS E/Z ratios by HPLC): 30%; PSS % Z at 480 nm (PSS E/Z ratios by HPLC): 33%; PSS % Z at 490 nm (PSS E/Z ratios by HPLC): 36%; PSS % Z at 500 nm (PSS E/Z ratios by HPLC): 39%
2 | Cn1c(=O)n(CCCO)c(=O)c2c1nc(Oc1ccc(N=Nc3ccccc3)c(Cl)c1)n2Cc1ccc(Cl)cc1 [AzHC] | comparable chromocontrol | ~ 82% | 95 | 21 | 6 | 4 | 4 | 7 | 23 | 52 | 74 | 81 | 80 | 79 | 76 | 72 | 68 | 63 | 59 | 55 | PSS % E at 500 nm (PSS E/Z ratios by HPLC): 52%; PSS % Z at 330 nm (PSS E/Z ratios by HPLC): 79%; PSS % Z at 340 nm (PSS E/Z ratios by HPLC): 94%; PSS % Z at 350 nm (PSS E/Z ratios by HPLC): 96%; PSS % Z at 360 nm (PSS E/Z ratios by HPLC): 96%; PSS % Z at 370 nm (PSS E/Z ratios by HPLC): 93%; PSS % Z at 380 nm (PSS E/Z ratios by HPLC): 78%; PSS % Z at 390 nm (PSS E/Z ratios by HPLC): 48%; PSS % Z at 400 nm (PSS E/Z ratios by HPLC): 26%; PSS % Z at 410 nm (PSS E/Z ratios by HPLC): 19%; PSS % Z at 420 nm (PSS E/Z ratios by HPLC): 20%; PSS % Z at 430 nm (PSS E/Z ratios by HPLC): 21%; PSS % Z at 440 nm (PSS E/Z ratios by HPLC): 24%; PSS % Z at 450 nm (PSS E/Z ratios by HPLC): 28%; PSS % Z at 460 nm (PSS E/Z ratios by HPLC): 32%; PSS % Z at 470 nm (PSS E/Z ratios by HPLC): 37%; PSS % Z at 480 nm (PSS E/Z ratios by HPLC): 41%; PSS % Z at 490 nm (PSS E/Z ratios by HPLC): 45%; PSS % Z at 500 nm (PSS E/Z ratios by HPLC): 48%

From article PMC12858405, “Ideal efficacy photoswitching for chromocontrol of TRPC4/5 channel functions in live tissues” (Nature Chemical Biology, 2026)
